Reference: US9592224B2, “Substituted benzothiazoles and therapeutic uses thereof for the treatment of human diseases” (CONSEJO SUPERIOR DE INVESTIGACIONES CIENTÍFICAS, priority 2013, dated 2017)

What was measured:
[1] = target: T1, recombinant human enzyme CK-1δ (Homo sapiens, UniProt P48730); assay: Enzyme inhibition assay, Luminometer Kinase-GLO method, CK-1δ; type: biochemical; conditions: casein substrate, 4 μM ATP, 60 minutes at 30° C.; read-out: Inhibitory Concentration 50 (IC50) CK-1δ
T1 construct: purchased Millipore Iberica SAU
Protocol: (§1) Enzyme inhibition assays were performed using the Luminometer Kinase-GLO® method. Recombinant human enzyme CK-1δ was purchased from Millipore Iberica SAU and recombinant human enzyme CK-1ε was purchased from Invitrogen. The phosphorylation substration chosen was casein. The Luminescent Kinase Kit (catalogue no. V6711) was obtained from Promega. ATP and other reagents were purchased from Sigma-Aldrich (St. Louis, Mo.).
(§2) The assays were conducted in buffer using 96-well plates. In a typical assay: 10 μL of the test compound (dissolved in dimethylsulfoxide at a concentration of 1 mM and, in turn, dissolved in buffer to the required concentration for the experiment) and 10 μL (16 ng) of the CK-1δ enzyme or 10 μL (50 ng) of the CK-1ε enzyme row were added to each well followed by 20 μL of buffer containing 0.1% casein as substrate and 4 μM of ATP. The assay buffer contained: 50 mM HEPES, pH 7.5; 0.01% Brij-35; 10 mM MgCl2; 1 mM EGTA and 0.01% NaN3. […] After incubating for 60 minutes at 30° C., the enzymatic reaction was stopped using 40 μL of Kinase-GLO® reagent. Luminescence was measured after ten minutes using a FLUOstar Optima (BMG Labtechnologies GmbH, Offenburg, Germany) multimode reader. The activity was proportional to the difference between the total and consumed ATP. Inhibition activities were calculated in accordance with the maximum activity measured in the absence of inhibitor. IC50 is defined as the concentration of each compound that reduces enzyme activity by 50% with respect to that obtained without inhibitor.

[2] = target: T2, recombinant human enzyme CK-1ε (Homo sapiens, UniProt P49674); assay: Enzyme inhibition assay, Luminometer Kinase-GLO method, CK-1ε; type: biochemical; conditions: casein substrate, 4 μM ATP, 60 minutes at 30° C.; read-out: Inhibitory Concentration 50 (IC50) CK-1ε
T2 construct: purchased Invitrogen
Protocol: as §1, §2

T1 sequence (P48730 whole entry): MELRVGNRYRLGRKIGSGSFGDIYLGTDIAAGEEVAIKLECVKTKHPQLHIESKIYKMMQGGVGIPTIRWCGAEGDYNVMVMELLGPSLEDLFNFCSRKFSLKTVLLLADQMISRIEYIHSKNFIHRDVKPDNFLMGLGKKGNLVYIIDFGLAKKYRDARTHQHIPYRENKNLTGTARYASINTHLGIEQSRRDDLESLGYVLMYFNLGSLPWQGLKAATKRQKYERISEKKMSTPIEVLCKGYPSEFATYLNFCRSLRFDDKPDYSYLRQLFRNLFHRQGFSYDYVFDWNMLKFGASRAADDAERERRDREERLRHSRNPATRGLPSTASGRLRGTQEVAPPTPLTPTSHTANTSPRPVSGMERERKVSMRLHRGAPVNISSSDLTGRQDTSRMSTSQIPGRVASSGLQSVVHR
T2 sequence (P49674 whole entry): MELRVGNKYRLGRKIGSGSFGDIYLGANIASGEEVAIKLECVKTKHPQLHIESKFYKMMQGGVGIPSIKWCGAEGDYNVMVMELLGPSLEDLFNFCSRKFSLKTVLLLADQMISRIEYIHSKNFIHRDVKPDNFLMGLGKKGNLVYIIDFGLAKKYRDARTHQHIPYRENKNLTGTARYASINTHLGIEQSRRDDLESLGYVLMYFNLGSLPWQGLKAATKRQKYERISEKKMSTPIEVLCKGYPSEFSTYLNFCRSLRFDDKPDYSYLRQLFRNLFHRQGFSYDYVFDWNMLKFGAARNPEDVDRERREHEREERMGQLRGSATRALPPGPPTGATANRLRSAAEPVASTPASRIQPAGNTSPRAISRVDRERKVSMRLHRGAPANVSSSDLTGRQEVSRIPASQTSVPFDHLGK

| IC50 [1] | IC50 [2] | SMILES |
| --- | --- | --- |
| 70 nM | 500 nM | COc1ccc(CC(=O)Nc2nc3ccc(Cl)cc3s2)cc1 [Compound 2, N-(6-chlorobenzothiazole-2-yl)-2-(4-methoxyphenyl)acetamide] |
| 570 nM | 2410 nM | COc1ccc(CC(=O)Nc2nc3ccc(OC)cc3s2)cc1 [Compound 19, N-(6-methoxybenzothiazole-2-yl)-2-(4-methoxyphenyl)acetamide] |
| 750 nM | 8750 nM | COc1ccc2nc(NC(=O)Cc3ccc(Cl)cc3)sc2c1 [Compound 21, N-(6-methoxybenzothiazole-2-yl)-2-(4-chlorophenyl)acetamide] |
| 530 nM | 3730 nM | COc1ccc2nc(NC(=O)Cc3cccc(Cl)c3)sc2c1 [Compound 22, N-(6-methoxybenzothiazole-2-yl)-2-(3-chlorophenyl)acetamide] |
| 540 nM | 1020 nM | O=C(Cc1cccc(Cl)c1)Nc1nc2ccc(OC(F)(F)F)cc2s1 [Compound 23, N-(6-trifluoromethoxybenzothiazole-2-yl)-2-(3-chlorophenyl)acetamide] |
| 420 nM | 2430 nM | COc1cccc(CC(=O)Nc2nc3ccc(OC)cc3s2)c1 [Compound 25, N-(6-methoxybenzothiazole-2-yl)-2-(3-methoxyphenyl)acetamide] |
| 990 nM | 8970 nM | CCOc1ccc2nc(NC(=O)Cc3cccc(OC)c3)sc2c1 [Compound 26, N-(6-ethoxybenzothiazole-2-yl)-2-(3-methoxyphenyl)acetamide] |

The remaining lines, values behind:

| SMILES | IC50 [1] | IC50 [2] |
| --- | --- | --- |
| O=C(Cc1ccccc1Cl)Nc1nc2ccc(C(F)(F)F)cc2s1 [Compound 7, N-(6-trifluoromethylbenzothiazole-2-yl)-2-(2-chlorophenyl)acetamide] | 68 nM | 7730 nM |
| O=C(Cc1ccc(Cl)c(Cl)c1)Nc1nc2ccc(C(F)(F)F)cc2s1 [Compound 9, N-(6-trifluoromethylbenzothiazole-2-yl)-2-(3,4-dichlorophenyl)acetamide] | 56 nM | 870 nM |
| COc1cc(CC(=O)Nc2nc3ccc(OC(F)(F)F)cc3s2)cc(OC)c1OC [Compound 11, N-(6-trifluoromethoxybenzothiazole-2-yl)-2-(3,4,5-trimethoxyphenyl)acetamide] | 79 nM | 940 nM |
| O=C(Cc1cccc(C(F)(F)F)c1)Nc1nc2ccc(C(F)(F)F)cc2s1 [Compound 13, N-(6-trifluoromethylbenzothiazole-2-yl)-2-(3-(trifluoromethyl)phenyl)acetamide] | 87 nM | 720 nM |
| O=C(Nc1nc2ccc(C(F)(F)F)cc2s1)C(c1ccccc1)c1ccccc1 [Compound 15, N-(6-trifluoromethylbenzothiazole-2-yl)-2,2-diphenylacetamide] | 260 nM | 2750 nM |
| COc1ccc2nc(NC(=O)C(c3ccccc3)c3ccccc3)sc2c1 [Compound 16, N-(6-methoxybenzothiazole-2-yl)-2,2-diphenylacetamide] | 840 nM | 5070 nM |
| O=C(CCc1ccccc1)Nc1nc2ccc([N+](=O)[O-])cc2s1 [Compound 17, N-(6-nitrobenzothiazole-2-yl)-3-phenylpropanamide] | 570 nM | 9400 nM |
| O=C(Cc1ccc(F)cc1)Nc1nc2ccccc2s1 [Compound 18, N-(benzothiazole-2-yl)-2-(4-fluorophenyl)acetamide] | 530 nM | 3080 nM |
| O=C(Nc1cccc(Cl)c1)Nc1nc2ccc(C(F)(F)F)cc2s1 [Compound 24, N-(6-trifluoromethylbenzothiazole-2-yl)-N′-(3-chlorophenyl)urea] | 740 nM | 11000 nM |
| COc1ccccc1CC(=O)Nc1nc2ccc(OC(F)(F)F)cc2s1 [Compound 27, N-(6-trifluoromethoxybenzothiazole-2-yl)-2-(2-methoxyphenyl)acetamide] | 620 nM | 7390 nM |
| O=C(Cc1ccc(Cl)c(Cl)c1)Nc1nc2ccc(OC(F)(F)F)cc2s1 [Compound 28, N-(6-trifluoromethoxybenzothiazole-2-yl)-2-(3,4-dichlorophenyl)acetamide] | 590 nM | 930 nM |
